Test results as given in US8969390B2, “Composition containing sorbitan monocaprylate and antimicrobial substances” (Clariant Finance (BVI) Limited, priority 2009, dated 2015).

Experiments:
[1] = system: Pseudomonas aeruginosa, Staphylococcus aureus, Candida albicans and Aspergillus brasiliensis; assay: Challenge test according to Ph. Eur. Chapter 5.1.3, overall preservation (all test organisms); assay type: cell-based; settings: formulation A (cream)
Description: (§1) The following examples show results of challenge tests that were carried out according to the requirements of Ph. Eur. Chapter 5.1.3. The following test organisms are used here as representatives for microorganisms: Pseudomonas aeruginosa (gram-negative; abbreviated below as “P. a.”), Staphylococcus aureus (gram-positive; abbreviated below as “St. a.”), Candida albicans (yeast fungus; abbreviated below as “C. a.”) and Aspergillus brasiliensis (mold fungus; abbreviated below as “A. b.”). In a challenge test, a cosmetic, dermatological or pharmaceutical formulation is accurately considered as adequately preserved if all four test organisms are passed at least with a B criterion. An A criterion means an outstanding preservation, a B criterion, means an adequate preservation and with an F criterion the test is considered overall as not passed. As a comparison, an unpreserved sample of the respective formulation is additionally tested. The further abbreviations SC=sorbitan monocaprylate, Octopirox®=piroctone olamine apply below.
(§2) The assignment of the A, B and F criteria is directed by the level of the microorganism count reduction within a fixed time interval, in which only the logarithmic reduction is considered.

Aspergillus brasiliensis = assay: Challenge test according to Ph. Eur. Chapter 5.1.3, Aspergillus brasiliensis; assay type: cell-based; settings: formulation B (shampoo), use concentration 0.05% piroctone olamine
Description: as §1, §2

| Compound | adequate preservation of formulation A ([1]; 0.4% benzoic acid as individual antimicrobial active ingredient) | protection of formulation B against growth of mold fungi (Aspergillus brasiliensis) | adequate preservation of formulation A ([1]; use concentration 0.05% piroctone olamine) |
| --- | --- | --- | --- |
| O=C(O)c1ccccc1 [Benzoic acid, benzoic acid, reference compound] | does not suffice |  |  |
| Cc1cc(CC(C)CC(C)(C)C)n(O)c(=O)c1.NCCO (stereo not drawn) [Octopirox ®, piroctone olamine] |  | cannot adequately protect | cannot be preserved adequately |
